Experimental data as given in PubChem BioAssay AID180 (DTP/NCI, 2004).
Values joined by “and” are separate entries in the source; they are usually repeats but may differ in a detail not shown here. Identical values can stand only once.

Test system: BDF1 mice, Adenocarcinoma 755 s.c., tumor weight T/C
Assay: NCI In Vivo Anticancer Drug Screen. Data for tumor model Adenocarcinoma 755 (subcutaneous) in B6D2F1 (BDF1) mice
Details: endpoint: mean tumor weight, higher = larger tumour
Method in brief: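 Values express treated (T) relative to vehicle-dosed control (C) animals, based on survival or tumour size measured after compound treatment of mice bearing a transplanted tumour.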

Compound: OCC1OC(n2cnc3c(=S)nc[nH]c32)C(O)C1O (stereo not drawn)
- T/C (dose: 0.28 mg/kg/injection, schedule: Q01DX011 (ip), vehicle: carboxymethylcellulose (CMC)): 47 % of control
- T/C (dose: 0.5 mg/kg/injection, schedule: Q01DX011 (ip), vehicle: saline): 31 % of control
- T/C (dose: 0.56 mg/kg/injection, schedule: Q01DX011 (ip), vehicle: carboxymethylcellulose (CMC)): 100 % of control
- T/C (dose: 1.0 mg/kg/injection, schedule: Q01DX011 (oral), vehicle: methylcellulose (MC)): 59 % of control
- T/C (dose: 1.0 mg/kg/injection, schedule: Q01DX011 (oral), vehicle: saline): 63 % of control
- T/C (dose: 1.12 mg/kg/injection, schedule: Q01DX011 (ip), vehicle: carboxymethylcellulose (CMC)): 30 % of control
- T/C (dose: 1.25 mg/kg/injection, schedule: Q01DX011 (ip), vehicle: saline): 26 % of control
- T/C (dose: 1.5 mg/kg/injection, schedule: Q01DX011 (ip), vehicle: carboxymethylcellulose (CMC)): 65 % of control
- T/C (dose: 2.0 mg/kg/injection, schedule: Q01DX011 (oral), vehicle: methylcellulose (MC)): 9 % of control
- T/C (dose: 2.0 mg/kg/injection, schedule: Q01DX011 (oral), vehicle: saline): 47 % of control
- T/C (dose: 2.23 mg/kg/injection, schedule: Q01DX011 (ip), vehicle: carboxymethylcellulose (CMC)): 4 % of control and 7 % of control
- T/C (dose: 2.5 mg/kg/injection, schedule: Q01DX011 (ip), vehicle: carboxymethylcellulose (CMC)): 34 % of control
- T/C (dose: 3.0 mg/kg/injection, schedule: Q01DX011 (oral), vehicle: methylcellulose (MC)): 14 % of control
- T/C (dose: 3.75 mg/kg/injection, schedule: Q01DX011 (ip), vehicle: carboxymethylcellulose (CMC)): 6 % of control and 12 % of control
- T/C (dose: 4.0 mg/kg/injection, schedule: Q01DX011 (oral), vehicle: methylcellulose (MC)): 4 % of control
- T/C (dose: 4.0 mg/kg/injection, schedule: Q01DX011 (oral), vehicle: saline): 9 % of control
- T/C (dose: 4.47 mg/kg/injection, schedule: Q01DX011 (ip), vehicle: carboxymethylcellulose (CMC)): 10 % of control
- T/C (dose: 5.0 mg/kg/injection, schedule: Q01DX011 (oral), vehicle: methylcellulose (MC)): 3 % of control
- T/C (dose: 7.5 mg/kg/injection, schedule: Q01DX011 (ip), vehicle: carboxymethylcellulose (CMC)): 5 % of control and 8 % of control
- T/C (dose: 8.0 mg/kg/injection, schedule: Q01DX011 (oral), vehicle: saline): 7 % of control
- T/C (dose: 8.94 mg/kg/injection, schedule: Q01DX011 (ip), vehicle: carboxymethylcellulose (CMC)): 5 % of control
- T/C (dose: 10.0 mg/kg/injection, schedule: Q01DX006 (iv), vehicle: saline): 2 % of control
- T/C (dose: 10.0 mg/kg/injection, schedule: Q01DX011 (ip), vehicle: saline): 4 % of control
- T/C (dose: 10.0 mg/kg/injection, schedule: Q01DX011 (oral), vehicle: methylcellulose (MC)): 2 % of control
- T/C (dose: 10.0 mg/kg/injection, schedule: Q01DX011 (sc), vehicle: saline): 4 % of control
- T/C (dose: 10.0 mg/kg/injection, schedule: Q03DX004 (im), vehicle: saline): 3 % of control
- T/C (dose: 15.0 mg/kg/injection, schedule: Q01DX011 (ip), vehicle: carboxymethylcellulose (CMC)): 2 % of control and 7 % of control
- T/C (dose: 17.87 mg/kg/injection, schedule: Q01DX011 (ip), vehicle: carboxymethylcellulose (CMC)): 6 % of control
- T/C (dose: 18.75 mg/kg/injection, schedule: Q01DX011 (ip), vehicle: carboxymethylcellulose (CMC)): 2 % of control
- T/C (dose: 20.0 mg/kg/injection, schedule: Q01DX006 (iv), vehicle: saline): 2 % of control
- T/C (dose: 20.0 mg/kg/injection, schedule: Q01DX011 (ip), vehicle: saline): 4 % of control
- T/C (dose: 20.0 mg/kg/injection, schedule: Q01DX011 (sc), vehicle: saline): 2 % of control
- T/C (dose: 20.0 mg/kg/injection, schedule: Q03DX004 (im), vehicle: saline): 2 % of control
- T/C (dose: 25.0 mg/kg/injection, schedule: Q01DX011 (ip), vehicle: carboxymethylcellulose (CMC)): 3 % of control
- T/C (dose: 35.75 mg/kg/injection, schedule: Q01DX011 (ip), vehicle: carboxymethylcellulose (CMC)): 5 % of control
- T/C (dose: 37.5 mg/kg/injection, schedule: Q01DX011 (ip), vehicle: carboxymethylcellulose (CMC)): 2 % of control and 5 % of control
- T/C (dose: 40.0 mg/kg/injection, schedule: Q01DX006 (iv), vehicle: saline): 3 % of control
- T/C (dose: 40.0 mg/kg/injection, schedule: Q01DX010 (oral), vehicle: saline): 3 % of control
- T/C (dose: 40.0 mg/kg/injection, schedule: Q01DX011 (ip), vehicle: saline): 3 % of control
- T/C (dose: 40.0 mg/kg/injection, schedule: Q01DX011 (sc), vehicle: saline): 4 % of control
- T/C (dose: 40.0 mg/kg/injection, schedule: Q03DX004 (im), vehicle: saline): 1 % of control
- T/C (dose: 57.0 mg/kg/injection, schedule: Q01DX011 (ip), vehicle: carboxymethylcellulose (CMC)): 9 % of control
- T/C (dose: 71.5 mg/kg/injection, schedule: Q01DX011 (ip), vehicle: carboxymethylcellulose (CMC)): 5 % of control
- T/C (dose: 73.0 mg/kg/injection, schedule: Q01DX011 (ip), vehicle: carboxymethylcellulose (CMC)): 4 % of control
- T/C (dose: 75.0 mg/kg/injection, schedule: Q01DX011 (ip), vehicle: carboxymethylcellulose (CMC)): 4 % of control
- T/C (dose: 80.0 mg/kg/injection, schedule: Q01DX006 (iv), vehicle: saline): 3 % of control
- T/C (dose: 80.0 mg/kg/injection, schedule: Q01DX011 (ip), vehicle: alkali diluted with saline): 4 % of control
- T/C (dose: 80.0 mg/kg/injection, schedule: Q01DX011 (ip), vehicle: saline): 5 % of control
- T/C (dose: 80.0 mg/kg/injection, schedule: Q01DX011 (sc), vehicle: saline): 4 % of control
- T/C (dose: 80.0 mg/kg/injection, schedule: Q03DX004 (im), vehicle: saline): 2 % of control
- T/C (dose: 115.0 mg/kg/injection, schedule: Q01DX011 (ip), vehicle: carboxymethylcellulose (CMC)): 3 % of control
- T/C (dose: 120.0 mg/kg/injection, schedule: Q01DX011 (ip), vehicle: alkali diluted with saline): 2 % of control and 3 % of control
- T/C (dose: 143.0 mg/kg/injection, schedule: Q01DX011 (ip), vehicle: carboxymethylcellulose (CMC)): 5 % of control
- T/C (dose: 146.0 mg/kg/injection, schedule: Q01DX011 (ip), vehicle: carboxymethylcellulose (CMC)): 6 % of control
- T/C (dose: 150.0 mg/kg/injection, schedule: Q01DX011 (ip), vehicle: carboxymethylcellulose (CMC)): 4 % of control
- T/C (dose: 160.0 mg/kg/injection, schedule: Q01DX011 (ip), vehicle: alkali diluted with saline): 3 % of control
- T/C (dose: 200.0 mg/kg/injection, schedule: Q01DX011 (ip), vehicle: carboxymethylcellulose (CMC)): 6 % of control
- T/C (dose: 225.0 mg/kg/injection, schedule: Q01DX011 (ip), vehicle: carboxymethylcellulose (CMC)): 6 % of control
- T/C (dose: 231.0 mg/kg/injection, schedule: Q01DX011 (ip), vehicle: carboxymethylcellulose (CMC)): 5 % of control
- T/C (dose: 250.0 mg/kg/injection, schedule: Q01DX011 (ip), vehicle: carboxymethylcellulose (CMC)): 3 % of control
- T/C (dose: 300.0 mg/kg/injection, schedule: Q01DX011 (ip), vehicle: carboxymethylcellulose (CMC)): 7 % of control
- T/C (dose: 320.0 mg/kg/injection, schedule: Q01DX001 (ip), vehicle: alkali diluted with saline): 5 % of control and 7 % of control
- T/C (dose: 320.0 mg/kg/injection, schedule: Q01DX001 (oral), vehicle: alkali diluted with saline): 18 % of control
- T/C (dose: 320.0 mg/kg/injection, schedule: Q03DX004 (ip), vehicle: alkali diluted with saline): 1 % of control and 5 % of control
- T/C (dose: 320.0 mg/kg/injection, schedule: Q03DX004 (oral), vehicle: alkali diluted with saline): 2 % of control
- T/C (dose: 320.0 mg/kg/injection, schedule: Q07DX002 (ip), vehicle: alkali diluted with saline): 3 % of control and 7 % of control
- T/C (dose: 320.0 mg/kg/injection, schedule: Q07DX002 (oral), vehicle: alkali diluted with saline): 4 % of control
- T/C (dose: 480.0 mg/kg/injection, schedule: Q01DX001 (ip), vehicle: alkali diluted with saline): 4 % of control and 9 % of control
- T/C (dose: 480.0 mg/kg/injection, schedule: Q01DX001 (oral), vehicle: alkali diluted with saline): 8 % of control
- T/C (dose: 480.0 mg/kg/injection, schedule: Q03DX004 (ip), vehicle: alkali diluted with saline): 2 % of control and 3 % of control
- T/C (dose: 480.0 mg/kg/injection, schedule: Q07DX002 (ip), vehicle: alkali diluted with saline): 6 % of control
- T/C (dose: 480.0 mg/kg/injection, schedule: Q07DX002 (oral), vehicle: alkali diluted with saline): 7 % of control
- T/C (dose: 640.0 mg/kg/injection, schedule: Q01DX001 (ip), vehicle: alkali diluted with saline): 5 % of control
- T/C (dose: 640.0 mg/kg/injection, schedule: Q01DX001 (oral), vehicle: alkali diluted with saline): 9 % of control
- T/C (dose: 640.0 mg/kg/injection, schedule: Q07DX002 (ip), vehicle: alkali diluted with saline): 4 % of control
- T/C (dose: 640.0 mg/kg/injection, schedule: Q07DX002 (oral), vehicle: alkali diluted with saline): 3 % of control
- T/C (dose: 960.0 mg/kg/injection, schedule: Q01DX001 (oral), vehicle: alkali diluted with saline): 9 % of control
- T/C (dose: 960.0 mg/kg/injection, schedule: Q07DX002 (oral), vehicle: alkali diluted with saline): 6 % of control
